Test results as given in ChEMBL document CHEMBL1201862, “PubChem BioAssay data set” (2004).
Calls of active or inactive are those of the source.

How the values were obtained:
Wee1-like protein kinase = Wee1-like protein kinase (Homo sapiens, UniProt P30291); assay: HeLa cell cycle G2/M accumulation – FACS, mechanism study for Wee1 degradation inhibitor project, late-stage follow-up, panel member Wee1 Degradation (AID 2088)
[1] = target: G2/mitotic-specific cyclin-B1 (Homo sapiens, UniProt P14635); assay: HeLa cell cycle G2/M accumulation – FACS, mechanism study for Wee1 degradation inhibitor project, late-stage follow-up, panel member Cyclin B Degradation (AID 2088)
Sequence of G2/mitotic-specific cyclin-B1 (P14635 whole entry): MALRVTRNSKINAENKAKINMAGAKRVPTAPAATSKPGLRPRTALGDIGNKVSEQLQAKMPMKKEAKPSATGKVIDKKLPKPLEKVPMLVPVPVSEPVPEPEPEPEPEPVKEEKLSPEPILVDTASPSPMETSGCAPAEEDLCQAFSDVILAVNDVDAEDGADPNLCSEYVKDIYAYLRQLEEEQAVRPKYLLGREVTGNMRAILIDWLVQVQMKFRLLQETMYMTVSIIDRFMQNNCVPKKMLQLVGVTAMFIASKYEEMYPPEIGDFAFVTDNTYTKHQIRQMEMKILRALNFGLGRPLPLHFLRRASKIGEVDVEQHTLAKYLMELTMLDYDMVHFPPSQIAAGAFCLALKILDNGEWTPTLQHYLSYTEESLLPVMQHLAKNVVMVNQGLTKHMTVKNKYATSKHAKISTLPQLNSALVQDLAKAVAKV

[2] = target: T1, Kappa-type opioid receptor (Homo sapiens, UniProt P41145); assay: kappa opioid receptor blockers, image-based, SAR follow-up (AID 2348); type: functional
T1 sequence (P41145 whole entry): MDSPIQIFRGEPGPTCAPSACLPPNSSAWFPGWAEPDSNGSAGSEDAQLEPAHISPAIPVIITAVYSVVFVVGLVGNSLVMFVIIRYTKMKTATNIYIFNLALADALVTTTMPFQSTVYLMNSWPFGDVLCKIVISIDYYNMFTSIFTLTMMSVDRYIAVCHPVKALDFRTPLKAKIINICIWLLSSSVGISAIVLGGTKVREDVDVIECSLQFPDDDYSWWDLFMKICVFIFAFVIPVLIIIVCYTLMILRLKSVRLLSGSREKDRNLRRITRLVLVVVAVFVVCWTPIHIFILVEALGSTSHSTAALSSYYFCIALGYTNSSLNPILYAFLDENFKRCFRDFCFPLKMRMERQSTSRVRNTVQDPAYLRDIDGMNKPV

[3] = target: T2, Delta-type opioid receptor (Homo sapiens, UniProt P41143); assay: delta opioid receptor blockers – image-based, SAR follow-up (AID 2357); type: functional
T2 sequence (P41143 whole entry): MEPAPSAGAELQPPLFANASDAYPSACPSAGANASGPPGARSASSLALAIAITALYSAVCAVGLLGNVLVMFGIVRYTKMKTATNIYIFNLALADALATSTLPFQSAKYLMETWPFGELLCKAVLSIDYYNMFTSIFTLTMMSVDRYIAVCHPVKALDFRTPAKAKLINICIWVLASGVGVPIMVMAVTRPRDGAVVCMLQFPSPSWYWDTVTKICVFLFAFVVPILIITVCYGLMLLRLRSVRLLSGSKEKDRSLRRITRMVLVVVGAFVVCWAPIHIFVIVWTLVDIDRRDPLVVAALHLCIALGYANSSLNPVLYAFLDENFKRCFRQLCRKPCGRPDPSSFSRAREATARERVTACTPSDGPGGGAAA

Mu-type opioid receptor [4] = target: T3, Mu-type opioid receptor (Homo sapiens, UniProt P35372); assay: mu opioid receptor activators, image-based, SAR follow-up (AID 2352); type: functional
T3 sequence (P35372 whole entry): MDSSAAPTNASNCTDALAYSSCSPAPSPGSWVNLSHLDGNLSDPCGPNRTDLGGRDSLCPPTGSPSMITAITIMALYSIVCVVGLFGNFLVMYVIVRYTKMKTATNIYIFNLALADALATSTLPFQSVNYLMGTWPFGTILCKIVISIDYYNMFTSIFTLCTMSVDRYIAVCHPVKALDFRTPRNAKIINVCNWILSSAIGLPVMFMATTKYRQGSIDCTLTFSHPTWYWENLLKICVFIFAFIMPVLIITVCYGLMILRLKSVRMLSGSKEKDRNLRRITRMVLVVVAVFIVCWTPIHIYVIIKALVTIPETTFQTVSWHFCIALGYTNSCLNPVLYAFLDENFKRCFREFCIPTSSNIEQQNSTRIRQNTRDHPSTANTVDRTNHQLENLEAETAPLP

[5] = target: T1, Kappa-type opioid receptor; assay: kappa opioid receptor blockers, cell-based, luminescence, beta-arrestin, SAR follow-up (AID 2285); type: functional
Mu-type opioid receptor [6] = target: T3, Mu-type opioid receptor; assay: mu opioid receptor blockers – image-based, SAR follow-up (AID 2420); type: functional;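 note: compounds added before stimulation of receptor with agonist DAMGO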
[7] = target: T2, Delta-type opioid receptor; assay: DOR agonists, SAR follow-up, image-based (AID 2370); type: functional
[8] = target: T1, Kappa-type opioid receptor; assay: kappa opioid receptor activation potency – imaging, image-based, SAR follow-up (AID 2359); type: functional
[9] = target: Metabotropic glutamate receptor 4 (Homo sapiens, UniProt Q14833); assay: Modulation of the Metabotropic Glutamate Receptor mGluR4: Potency at human mGluR4. Modulation of intracellular Ca2+ using Fluo-4, AM, in CHO expressing recombinant receptor [Related pubchem assays (depositor defined):AID2437, AID2807]; type: functional, cell-based
Sequence of Metabotropic glutamate receptor 4 (Q14833 whole entry): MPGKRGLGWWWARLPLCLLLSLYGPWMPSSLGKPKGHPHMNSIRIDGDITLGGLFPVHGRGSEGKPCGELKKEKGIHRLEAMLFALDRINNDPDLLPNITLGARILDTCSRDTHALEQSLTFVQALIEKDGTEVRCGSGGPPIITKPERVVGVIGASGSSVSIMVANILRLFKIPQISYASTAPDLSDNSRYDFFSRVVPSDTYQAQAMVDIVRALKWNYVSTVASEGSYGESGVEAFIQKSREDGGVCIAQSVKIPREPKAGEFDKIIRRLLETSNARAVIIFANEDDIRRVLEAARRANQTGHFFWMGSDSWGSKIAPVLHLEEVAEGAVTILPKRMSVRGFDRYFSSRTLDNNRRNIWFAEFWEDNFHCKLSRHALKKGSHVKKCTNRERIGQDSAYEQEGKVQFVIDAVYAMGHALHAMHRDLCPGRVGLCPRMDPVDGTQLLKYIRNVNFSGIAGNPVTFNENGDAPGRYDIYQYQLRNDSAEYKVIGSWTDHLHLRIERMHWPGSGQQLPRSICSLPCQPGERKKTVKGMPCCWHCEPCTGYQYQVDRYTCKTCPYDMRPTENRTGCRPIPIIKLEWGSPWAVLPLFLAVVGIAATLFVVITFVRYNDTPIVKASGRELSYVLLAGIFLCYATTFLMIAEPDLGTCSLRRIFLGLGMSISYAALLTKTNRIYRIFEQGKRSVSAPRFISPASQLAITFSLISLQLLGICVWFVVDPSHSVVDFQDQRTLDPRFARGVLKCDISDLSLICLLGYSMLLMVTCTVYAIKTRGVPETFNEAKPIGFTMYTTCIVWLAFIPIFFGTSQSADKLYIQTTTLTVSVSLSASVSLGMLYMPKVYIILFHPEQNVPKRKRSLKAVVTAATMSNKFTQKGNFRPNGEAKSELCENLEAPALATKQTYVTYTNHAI

[10] = target: T4, Ubiquitin-conjugating enzyme E2 N (Homo sapiens, UniProt P61088); type: functional;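 note: Dose-response confirmation in a TR-FRET assay detecting UBC13-driven polyubiquitin chain formation, inhibition measured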
T4 sequence (P61088 whole entry): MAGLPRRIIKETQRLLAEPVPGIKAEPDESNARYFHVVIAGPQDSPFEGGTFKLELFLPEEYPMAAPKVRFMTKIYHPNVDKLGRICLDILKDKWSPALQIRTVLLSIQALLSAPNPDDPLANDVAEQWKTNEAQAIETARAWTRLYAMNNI

[11] = Luminescence Cell-Based Dose Retest to Confirm Inhibitors of Cancer Stem Cells. [Related pubchem assays (depositor defined):AID2717, AID2721]; type: functional; conditions: Homo sapiens
[12] = target: Cyclin-dependent kinase 5/CDK5 activator 1 (Homo sapiens, UniProt Q00535); assay: blockade of human CDK5 activity – biochemical, cherry-picked samples, set 2, dose response (AID 504545)
Sequence of Cyclin-dependent kinase 5/CDK5 activator 1 (Q00535 whole entry): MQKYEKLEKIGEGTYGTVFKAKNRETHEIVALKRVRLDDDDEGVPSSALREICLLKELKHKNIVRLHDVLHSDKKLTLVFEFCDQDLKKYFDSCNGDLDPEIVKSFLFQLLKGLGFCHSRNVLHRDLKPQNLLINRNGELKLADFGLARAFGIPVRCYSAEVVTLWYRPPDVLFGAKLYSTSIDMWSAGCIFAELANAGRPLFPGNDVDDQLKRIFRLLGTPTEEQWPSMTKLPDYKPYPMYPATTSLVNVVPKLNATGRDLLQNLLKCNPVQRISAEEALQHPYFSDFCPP
Sequence of Cyclin-dependent kinase 5/CDK5 activator 1 (Q15078 whole entry, further chain): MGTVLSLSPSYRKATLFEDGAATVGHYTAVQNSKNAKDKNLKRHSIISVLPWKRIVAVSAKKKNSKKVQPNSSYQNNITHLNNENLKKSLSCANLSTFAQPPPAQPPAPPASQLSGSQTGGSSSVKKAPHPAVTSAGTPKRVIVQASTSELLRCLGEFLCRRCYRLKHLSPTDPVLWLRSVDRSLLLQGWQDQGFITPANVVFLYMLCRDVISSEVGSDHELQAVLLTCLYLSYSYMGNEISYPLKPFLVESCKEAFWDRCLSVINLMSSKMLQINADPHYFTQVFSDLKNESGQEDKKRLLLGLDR

[13] = HEK-293T cell viability reduction – luminescence, B-cell screen hits, cytotoxicity control for BCR NF-kB inhibitor project, dose response (AID 489021); type: functional, cell-based;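 note: HEK-293T cells carrying an NF-kB luciferase reporter; cells exposed to compound for about 14 hours before viability readout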
[14] = alpha-synuclein stem-loop luciferase translation blockers – H4 neuroglioma cells, luminescence, confirmation (AID 1988); type: functional, cell-based
[15] = luciferase reporter signal suppression in cells – H4 neuroglioma cells, luminescence, dose response (AID 1990); type: functional, cell-based
[16] = Luminescence Cell-Based Dose Response HTS to Identify Inhibitors of 5'UTR Stem-Loop Driven Prion Protein mRNA Translation in H4 Neuroglioblastoma Cells. [Related pubchem assays: 1827 (Project Summary), 1813 (Primary HTS)]; type: functional
[17] = target: Dual specificity protein phosphatase 3 (Homo sapiens, UniProt P51452); assay: inhibition constants for human DUSP3 – biochemical, colorimetric, SAR follow-up (AID 2004)
Sequence of Dual specificity protein phosphatase 3 (P51452 whole entry): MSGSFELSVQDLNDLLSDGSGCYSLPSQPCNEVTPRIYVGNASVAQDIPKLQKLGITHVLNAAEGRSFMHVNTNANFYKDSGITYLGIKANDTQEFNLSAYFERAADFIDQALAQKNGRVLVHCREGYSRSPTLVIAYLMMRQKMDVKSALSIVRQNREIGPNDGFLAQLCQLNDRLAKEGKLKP

Sequence of Wee1-like protein kinase (P30291 whole entry): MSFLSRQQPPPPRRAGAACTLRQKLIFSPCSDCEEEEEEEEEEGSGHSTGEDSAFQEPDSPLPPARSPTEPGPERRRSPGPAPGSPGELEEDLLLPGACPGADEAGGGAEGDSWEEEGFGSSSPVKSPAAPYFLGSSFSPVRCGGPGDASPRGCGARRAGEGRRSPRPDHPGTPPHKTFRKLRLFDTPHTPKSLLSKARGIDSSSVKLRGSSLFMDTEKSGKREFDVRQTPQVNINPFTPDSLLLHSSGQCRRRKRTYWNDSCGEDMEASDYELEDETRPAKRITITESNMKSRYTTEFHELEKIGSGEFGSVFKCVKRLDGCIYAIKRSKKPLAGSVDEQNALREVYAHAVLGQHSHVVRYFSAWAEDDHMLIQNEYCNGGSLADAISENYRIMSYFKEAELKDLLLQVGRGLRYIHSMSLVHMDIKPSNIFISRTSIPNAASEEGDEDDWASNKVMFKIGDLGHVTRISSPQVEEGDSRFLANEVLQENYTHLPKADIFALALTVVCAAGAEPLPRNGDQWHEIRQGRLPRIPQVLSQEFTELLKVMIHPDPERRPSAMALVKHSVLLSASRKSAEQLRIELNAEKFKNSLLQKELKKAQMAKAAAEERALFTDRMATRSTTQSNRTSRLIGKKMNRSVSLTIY

## Cc1ccc(NC(=O)CCCOc2cc(=O)n(C)c3ccccc23)c(Cl)c1
Wee1-like protein kinase
  EC50: > 49.7 µM (inactive)
[1]
  EC50: > 49.7 µM (inactive)

## Oc1c(C=Nc2cccc3cccnc23)sc2ccccc12
[2]
  IC50: 0.533 µM (active)
[3]
  IC50: 1.01 µM (active)
Mu-type opioid receptor [4]
  EC50: > 32 µM (inactive)
[5]
  IC50: 8.77 µM (active)
Mu-type opioid receptor [6]
  IC50: 0.897 µM (active)
[7]
  EC50: > 32 µM (inactive)
[8]
  EC50: > 32 µM (inactive)

## N#Cc1ccc(NC(=O)c2ccccn2)cc1C(F)(F)F
[9]
  EC50: 1.77 µM (active)

## CC[C@H](CO)Nc1nc(Nc2cccc(Cl)c2)c2ncn(C(C)C)c2n1
[10]
  IC50: > 20 µM (inactive)
[11]
  AC50: 6.4 µM (active)
[12]
  AC50: 0.275 µM (active)

## Cc1ccc(C(=O)NNC(=O)CCCN2C(=O)/C(=C/c3ccccc3Cl)SC2=S)cc1
[13]
  IC50: > 80 µM (inactive)
[14]
  EC50: 14 µM (active)
[15]
  EC50: 10.8 µM (active)
[16]
  EC50: > 120 µM (not active)

## COc1ccc(-c2csc(Nc3ccc(N)cc3)n2)cc1OC
[17]
  Ki: 71.1 µM (inactive)
